Data on 13 molecules can be found in US20240246946A1, “MODULATORS OF TREX1” (Constellation Pharmaceuticals, Inc., priority 2021, published 2024).

The target of assay [1] is T1, full length human TREX1 (Homo sapiens, UniProt Q9NSU2).
T1 construct: N-terminally His-Tev tagged full length human TREX1; made in house; host or cells: E. coli
T1 sequence (Q9NSU2 1-314): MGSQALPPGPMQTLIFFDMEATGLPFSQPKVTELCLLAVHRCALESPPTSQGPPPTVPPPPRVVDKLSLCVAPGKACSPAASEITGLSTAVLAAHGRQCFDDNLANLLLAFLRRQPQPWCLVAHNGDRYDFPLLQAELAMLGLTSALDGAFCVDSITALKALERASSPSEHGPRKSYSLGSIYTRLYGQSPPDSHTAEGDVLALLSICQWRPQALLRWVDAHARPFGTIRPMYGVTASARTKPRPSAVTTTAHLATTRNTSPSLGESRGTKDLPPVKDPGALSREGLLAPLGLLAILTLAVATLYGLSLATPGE
Briefly: TREX1 Kinetics Assays (TR-FRET association and dissociation, global fit with Kintek Explorer). The format is binding. The settings on record: for residence time / Kd: hTREX1, TR-FRET kinetics; for koff / kon: hTREX1, TR-FRET, 25° C., global fit. On the procedure:
Compound binding kinetics were assessed using a pair of TR-FRET assays which measure the proportion of protein bound to a biotinylated TREX1 inhibitor (“probe”).
N-terminally His-Tev tagged full length human TREX1 (expressed in E. coli and purified in house), complexed with Eu-W1024-anti-6×His (“Eu”; PerkinElmer) in reaction buffer (50 mM Tris, 150 mM NaCl, 2 mM DTT, 0.1 mg/mL BSA, 0.01% (w/v) Tween-20, 5 mM MgCl2, pH 7.4) was combined with an equal volume of test compound in reaction buffer and incubated at 25° C. Concentrations at this stage were 1 nM TREX1/Eu complex, and four concentrations of compound (diluted from 10 mM stocks in 100% DMSO). At defined time points, 18 μL of this mixture was withdrawn and combined with 2 μL probe to a final concentration of 1 μM probe. After incubating for 30 seconds, 18 μL was withdrawn and combined with 2 μL streptavidin-allophycocyanin (“SA-APC”; PerkinElmer) to a final concentration of 1.5 μM SA-APC. Fifteen μL of this mixture was then immediately transferred to a 384-well Black ProxiPlate Plus (PerkinElmer) and read in an EnVision plate reader (PerkinElmer) measuring fluorescence at 615 nm and 665 nm following excitation w/337 nm laser light. Final concentrations were 0.8 nM TREX1/Eu complex, 0.9 μM probe, and 1.5 μM SA-APC.
N-terminally His-Tev tagged full length human TREX1 (expressed in E. coli and purified in house), complexed with Eu-W1024-anti-6×His (“Eu”; PerkinElmer) in reaction buffer (50 mM Tris, 150 mM NaCl, 2 mM DTT, 0.1 mg/mL BSA, 0.01% (w/v) Tween-20, 5 mM MgCl2, pH 7.4) was combined with an equal volume of test compound in reaction buffer. Concentrations at this stage were 100 nM TREX1/Eu complex and 100 nM test compound (diluted from 10 mM stocks in 100% DMSO). Following an equilibration period of at least an hour at 25° C., this mixture was diluted 100-fold into reaction buffer containing 1 μM probe, and incubated at 25° C. At defined time points, 36 μL of the reaction mixture was withdrawn and combined with 4 μL streptavidin-allophycocyanin (“SA-APC”; PerkinElmer) to a final concentration of 1.5 μM SA-APC. Fifteen μL of this mixture was then immediately transferred to duplicate wells of a 384-well Black ProxiPlate Plus (PerkinElmer) and read in an EnVision plate reader (PerkinElmer) measuring fluorescence at 615 nm and 665 nm following excitation w/337 nm laser light.
The TR-FRET signal, a ratio of 665 nm/615 nm emitted light, was converted to fraction enzyme bound to test compound by normalizing to low signal (no enzyme or test compound) and high signal (no test compound) controls. Data from both association and dissociation experiments were fitted globally using Kintek Explorer software, which computes the rate constants directly.
In general terms: TR-FRET usually uses a lanthanide donor and a delayed reading to cut background.

In assay [2] the target is T1, full length human TREX1. Nature of the assay: hTREX1 Biochemical Assay (fluorescence, dsDNA substrate degradation). The following applies: biochemical, read-out: hTREX1 IC50. The procedure, abridged:
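Fluorescence rises as enzyme degrades a quenched TEX615-labelled dsDNA substrate (60 nM) in 50 mM Tris, 150 mM NaCl, 5 mM MgCl2, pH 7.4. Full-length His-Tev-tagged human TREX1, 4 pM, sits with compound 4 hours at 25° C before substrate; reaction 18 hours, stopped with EDTA.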

`Cc1nn(C)cc1C(c1cc(F)ccc1C#N)C(C)c1nc(C(=O)Nc2cnoc2)c(O)c(=O)n1C` (single isomer, unassigned) [Example 57 D1E2]: in assay [1], the residence time – broadly, how long the partners stay bound on average – was 431 min and the off-rate constant (koff) (commonly a measure of how fast the partners let go of each other) was 3.87e-05 s⁻¹. Further, in assay [2], the IC50 – broadly, the concentration that inhibits the measured activity by half – is less than 1 nM.
Consider `Cc1cncc(C(c2ccccc2C#N)C(C)c2nc(C(=O)Nc3cnoc3)c(O)c(=O)n2C)n1` (single isomer, unassigned) [Example 53 D1E2], for which, in assay [1], binding was put at a Kd of 0.255 nM; the residence time came out at 483 min; the dissociation rate constant (koff) is 3.45e-05 s⁻¹; the on-rate constant (kon) – broadly, a measure of how fast the partners come together – is 135000 M⁻¹ s⁻¹. Further, the IC50 in assay [2] is less than 1 nM.
In the case of `Cc1cc(C(c2cc(F)ccc2C#N)C(C)c2nc(C(=O)Nc3cnoc3)c(O)c(=O)n2C)n(C)n1` (single isomer, unassigned) [Example 111 D1E2], in assay [1], the residence time stood at 461 min and the koff is 3.62e-05 s⁻¹. In addition, the IC50 in assay [2] was less than 1 nM.
For `Cc1cnc(C(c2cc(F)ccc2C#N)C(C)c2nc(C(=O)Nc3cnoc3)c(O)c(=O)n2C)cn1` (single isomer, unassigned) [Example 115 D1E2], in assay [1], the residence time was determined as 515 min and the koff is 3.23e-05 s⁻¹. Moreover, the 50% inhibitory concentration (IC50) in assay [2] was less than 1 nM.
The matching figures for `Cc1ncc(C(c2ccccc2C#N)C(C)c2nc(C(=O)Nc3cnoc3)c(O)c(=O)n2C)nc1C` (single isomer, unassigned) [Example 81 D1E2]: 714 min, 2.33e-05 s⁻¹ and less than 1 nM.
On the same counts, the results for `CC(c1nc(C(=O)Nc2cnoc2)c(O)c(=O)n1C)C(c1cnn(C(C)C)c1)c1ccccc1C#N` (single isomer, unassigned) [Example 105 D1E2] are 662 min, 2.52e-05 s⁻¹ and less than 1 nM.
On to `CC(c1nc(C(=O)Nc2cnoc2)c(O)c(=O)n1C)C(c1cnn(C)c1)c1ccccc1Cl` (single isomer, unassigned) [Example 77 D1E1], for which, in assay [1], the Kd (commonly the concentration at which binding is half-saturated) was 0.338 nM, the residence time was 215 min, the off-rate (koff) is 7.77e-05 s⁻¹ and the on-rate constant (kon) was 230000 M⁻¹ s⁻¹. Besides, in assay [2], the IC50 was less than 1 nM.
In assay [1], `C[C@H](c1nc(C(=O)Nc2cnoc2)c(O)c(=O)n1C)[C@@H](c1cc(F)ccc1C#N)c1cn(C)nc1C#N` [Example 59 D1E2] had a residence time of 515 min and a koff of 3.23e-05 s⁻¹. Moreover, the IC50 in assay [2] was less than 1 nM.
On the same counts, the results for `CCn1c(C(C)C(c2cnn(C)c2)c2ccccc2C#N)nc(C(=O)Nc2cnoc2)c(O)c1=O` (single isomer, unassigned) [Example 149 D1E2] are 505 min, 3.3e-05 s⁻¹ and less than 1 nM.
For `CC(c1nc(C(=O)Nc2cnoc2)c(O)c(=O)n1C)C(c1cnn(CC(F)(F)F)c1)c1ccccc1C#N` (single isomer, unassigned) [Example 22 D1E1], in assay [1], the Kd came out at 0.614 nM, the residence time was 256 min, the dissociation rate constant (koff) is 6.5e-05 s⁻¹ and the on-rate (kon) was 106000 M⁻¹ s⁻¹. The IC50 in assay [2] was less than 1 nM.
On the same counts, the results for `CC(c1nc(C(=O)Nc2cnoc2)c(O)c(=O)n1C)C(c1cnn(C(F)F)c1)c1ccccc1C#N` (single isomer, unassigned) [Example 38 D1E1] are 0.351 nM, 290 min, 5.73e-05 s⁻¹, 163000 M⁻¹ s⁻¹ and less than 1 nM.
In assay [1], `Cc1nn(C)c(C)c1C(c1ccccc1C#N)C(C)c1nc(C(=O)Nc2cnoc2)c(O)c(=O)n1C` (single isomer, unassigned) [Example 78 D1E1] had a residence time of 413 min and an off-rate (koff) of 4.03e-05 s⁻¹. In addition, in assay [2], the half-inhibitory concentration (IC50) was less than 1 nM.
Regarding `CC(c1nc(C(=O)Nc2cnoc2)c(O)c(=O)n1C)C(c1cnn(C)c1)c1ccccc1C#N` (single isomer, unassigned) [Example 2 D1E1], in assay [1], the dissociation constant (Kd) is 0.231 nM, the residence time worked out at 368 min, the off-rate (koff) was 4.53e-05 s⁻¹ and the on-rate (kon) was 197000 M⁻¹ s⁻¹. In addition, the IC50 in assay [2] is less than 1 nM.
